Results published in patent US7968518B2, “Use of modified cyclosporins for the treatment of HCV disorders” (Novartis AG, priority 2003, dated 2011).

Tests used:
[1] = test system: HCV in PH5CH8 cells (non-neoplastic hepatocyte cell line); test: In vitro HCV infection experiment in PH5CH8 cells, real time RT-PCR; type: cell-based, Hepatitis C virus (HCV); conditions: PH5CH8 cells treated with HCV-positive plasma, continuous treatment; untreated cells about 10-fold increase
Description: (§1) Cell culture: Huh-7 and MH-14 cells, HCV replicon cells, are cultured in Dulbecco's modified Eagle's medium (DMEM) with 10% fetal bovine serum (FBS). PH5CH8 cells are cultured in a 1:1 mixture of DMEM and F12 medium supplemented with 100 ng/ml of epidermal growth factor, 10 μu/ml of insulin, 0.36 μg/ml of hydrocortisone, 5 μg/ml of transferrin, 5 μg/ml of linoleic acid, 20 ng/ml of selenium, 4 μg/ml of glucagon, 10 ng/ml of prolactin, 10 μg/ml of gentamicin, 200 μg/ml of kanamycin, and 2% FBS.
(§2) The forward and reverse primers used in this experiment are 5′-[…]-3′ and 5′-[…]-3′, respectively. The fluorogenic probe is 5′-[…]-3′. As an internal control, ribosomal RNA is also quantified using TaqMan Ribosomal RNA Control Reagents (Applied Biosystems).

[2] = test system: HCV subgenomic replicon in MH-14 cells; test: Immunoblot analysis of HCV NS5A and NS5B proteins in MH-14 HCV replicon cells; type: cell-based, Hepatitis C virus (HCV); conditions: 7 days
Description: as §1
Immunoblot analysis: Immunoblot analysis is performed as described by K. Watashi et al., Virology 2001, 286, 391-402. The primary antibodies used in this experiment are anti-NS5A, anti-NS5B, and anti-β-actin (Sigma) antibodies.
The effect of various cyclosporins of the invention on the replication of the HCV genome using MH-14 cells, in which the HCV subgenomic replicon as shown in FIG. 1A is autonomously replicated.

[3] = test system: HCV subgenomic replicon in MH-14 cells; conditions: 7th day of treatment
Description: as §1, §2
(§3) Replicon RNA is analyzed in MH-14 cells treated with or without a cyclosporin of the invention or IFNα for 7 days by northern blot analysis.

[4] = test system: HCV subgenomic replicon in MH-14 cells; test: Northern blot analysis of replicon RNA in MH-14 cells; type: cell-based, Hepatitis C virus (HCV); conditions: 1 μg/ml, 7 days
Description: as §1
Northern Blot Analysis: Nothern blot analysis is performed as described by H. Kishine et al., Biochem. Biophys. Res. Commun., 2002, 47, 119-125. The probe complementary to the NS5B sequence used in this experiment is described by H. Kishine, supra.
as §3

| Substance | increase of HCV RNA genome titer, 5th day vs 1st day post-inoculation [1] | amount of HCV NS5A and NS5B proteins by immunoblot analysis ([2]; 100 U/ml, positive control) | level of HCV RNA relative to the original [3] | amount of replicon RNA by northern blot [4] | amount of HCV NS5A and NS5B proteins by immunoblot analysis ([2]; 1 μg/ml) |
| --- | --- | --- | --- | --- | --- |
| IFNα | significant increase of the HCV RNA genome titer at these time points was not observed | undetectable |  |  |  |
| [MeIle]^4-Ciclosporin | significant increase of the HCV RNA genome titer at these time points was not observed |  | about 1/400 | undetectable | undetectable |
